Assay results taken from patent US20030108526A1, “Microorganisms for use in the measurement of environmental factors” (priority 2001, published 2003).

B1: ZmHK1: maize cytokinin receptor, 974 amino acids, SEQ ID NO: 2 (protein)
chain: MGGKYRAARTKRWWRGLAAAGWVLTAVVCSAVMHWTLRRDSMDRAEERLVSMCEERARMLQEQFGVTVNHVHAIAILISTFNFEKSPPAIDQDTFAKYTARTSFERPLLNGVAFAQRVFHHEREMFESQQGWVMNTMQREPAPPQVEYAPVIFSQDTVSYLARIDMMSGEEDRENIFRARTTGKAVLTNPFRLLGSNHLGVVLTFAVYRPDLPADASVEQRVEATIGYLGGAFDVESLVENLLSKLAGNQDIVVNVYDVTNASDAMVLYGPSSLDEQVPFLHVSMLDFGDPFRKHEMRCRYRQKLPMPWSAITNPLGTFVIWMLLGYSIAAAYSRYDKVTEDCRKMEELKTQAEAADVAKSQFLATASHEIRTPMNGVLGMLDMLLGTDLTMTQKDYAQTAQMCGRALITLINDVLDRAKIEAGKLELEAVPFDLRSLMDDVVSLFSSKSREKCIELAVFVCDNVPKVVIGDPWRFRQILTNLVGNAVKFTERGHVFVRVCLAENSNMEANQVLHGAMNGKGGRVESTANGAFNTLSGFEAADRRNSWQYFKLLLSDKESLLDDLESENSNQSDSDRVTLAISIEDTGVGIPLQAQDRVFTPFMQADSSTSRNYGGTGIGLSISKCLAELMGGQISFTSHPSVGSTFTFSATLKHSHKDISGDSSRSLTEALPTAFKGMKAILVDGRPVRSAVTRYHLKRLGILLQVVNNMNAVVKAFPGQNGAAGSREKASILFIESDFWRPETDVQLLNHLREQKNGQLSDGHKVVLLVTSEADKDKYGSIFDIVMCKPIRASTIASSIQQLLKVEIAERKDNQNRPSFLRSLLVGKNILVVDDNKVNLRVAAAALKKYGANVSCVESGKDAISLLQPPHRFDACFMDVQMPEMDGFEATGQIRQMELKANEERKNKLASIEGSTTAEYHLPVLAMTADVIQATYEECIKSGMDGYVSKPFDEEQLYQAVSRLVVGTTDSAV
modifications: Zea mays

Legend:
ZmHK1 = assay: Cytokinin sensor function and sensitivity of ZmHK1 in E. coli KMI001 (colony color on LAGX agar); type: cell-based, maize
Excerpt: The protein coding region of pZmHK1 was amplified by PCR and ligated to the BamHI/BSalI site of pIN-IIIΔEH plasmid. Primer sequences used in the PCR amplification are as described below.
Plasmid pIN-IIIΔEH has a promoter that constitutively directs weak expression of a foreign gene in E. coli. The resultant plasmid was designated pIN-III-ZmHK.
The constructed plasmid was transformed into E. coli KMI001 [ΔrcsC, cps::lacZ]. This E. coli strain is a strain in which cps gene involved in polysaccharide synthesis and a binary regulatory factor consisting of rcsC-rcsB (an expression regulatory system for cps) are partially modified. Specifically, sensor histidine kinase gene rcsC is deleted, and β-galactosidase (a marker gene) is inserted downstream of the promoter of cps gene. The resultant transformant was cultured in 2 ml of LAG liquid medium (1% Bacto tryptone, 0.5% Bacto yeast extract, 1% NaCl, 40 mM glucose, 50 mM phosphate buffer, pH 7.0) overnight at 25° C. The resultant culture broth was centrifuged and the supernatant was discarded. The E. coli cell pellet was washed twice in sterilized water and suspended in 2 ml (final volume) of sterilized water. This suspension was spotted at two points each on LAGX agar medium (1% Bacto tryptone, 0.5% Bacto yeast extract, 1% NaCl, 40 mM glucose, 50 mM phosphate buffer, pH 7.0, 80 μg/ml X-gal, 1.5% agarose) containing 1 μM trans-zeatin (t-zeatin) and on LAGX agar medium not containing t-zeatin, and cultured overnight (12 hr) at 25° C. The next day, the color of each colony was observed.
E. coli suspension was prepared in the same manner as in Example 4. Subsequently, the suspension was spotted on LAGX agar medium containing t-zeatin at varied concentrations from 0 nM to 1000 nM, and cultured overnight (12 hr) at 25° C. The next day, the color of each colony was observed.

AHK4 = AHK4 (Arabidopsis thaliana, UniProt Q9C5U0); settings: experimental conditions of Example 4; Plant Cell Physiol 2001, 42: 107-113; cited from earlier work
[1] = test system: cps::lacZ (β-galactosidase) expression in E. coli KMI001; assay: Examination of biosensor function: IPTG-induced sensor E. coli or its supernatant with receptor-transferred marker E. coli; type: cell-based, Escherichia coli; settings: 1 mM IPTG, Examples 6 and 7
Excerpt: (§1) The next day, the color of each colony was observed.
as §1

Chain of AHK4 (Q9C5U0 whole entry): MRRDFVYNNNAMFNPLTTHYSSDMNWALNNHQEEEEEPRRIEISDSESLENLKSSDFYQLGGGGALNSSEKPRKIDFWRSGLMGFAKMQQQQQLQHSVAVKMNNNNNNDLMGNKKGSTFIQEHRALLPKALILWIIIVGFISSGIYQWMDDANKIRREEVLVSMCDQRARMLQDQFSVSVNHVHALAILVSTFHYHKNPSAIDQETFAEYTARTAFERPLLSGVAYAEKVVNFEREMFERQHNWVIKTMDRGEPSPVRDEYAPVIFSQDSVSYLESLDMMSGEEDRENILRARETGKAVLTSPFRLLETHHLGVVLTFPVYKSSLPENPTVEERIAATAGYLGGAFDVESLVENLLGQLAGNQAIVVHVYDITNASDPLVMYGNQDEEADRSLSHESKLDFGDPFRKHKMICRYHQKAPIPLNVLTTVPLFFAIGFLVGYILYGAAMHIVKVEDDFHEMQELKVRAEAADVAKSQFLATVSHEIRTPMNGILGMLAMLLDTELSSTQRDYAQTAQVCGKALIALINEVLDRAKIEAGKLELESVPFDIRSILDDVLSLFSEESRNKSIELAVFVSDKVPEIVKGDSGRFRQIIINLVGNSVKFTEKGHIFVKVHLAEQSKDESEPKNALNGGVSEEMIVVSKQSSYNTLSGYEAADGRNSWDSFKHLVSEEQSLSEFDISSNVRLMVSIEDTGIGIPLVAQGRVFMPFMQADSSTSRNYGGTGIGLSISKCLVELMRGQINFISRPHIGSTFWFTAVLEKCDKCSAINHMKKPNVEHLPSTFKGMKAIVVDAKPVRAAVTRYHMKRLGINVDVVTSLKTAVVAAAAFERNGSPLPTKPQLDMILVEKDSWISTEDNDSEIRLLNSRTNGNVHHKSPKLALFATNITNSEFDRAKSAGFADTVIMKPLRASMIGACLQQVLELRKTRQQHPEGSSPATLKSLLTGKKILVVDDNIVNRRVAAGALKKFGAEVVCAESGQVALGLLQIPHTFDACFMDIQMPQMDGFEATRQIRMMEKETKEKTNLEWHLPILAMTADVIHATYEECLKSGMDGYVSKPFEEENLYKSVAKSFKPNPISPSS

Molecule	β-galactosidase expression of ZmHK1-transferred E. coli in response to the cytokinin in the medium (ZmHK1; 1 μM t-zeatin in LAGX agar, 12 hr, 25° C.)	t-zeatin concentration to which ZmHK1-transferred E. coli responds (ZmHK1; LAGX agar with 0 nM to 1000 nM t-zeatin, 12 hr, 25° C.)	lowest t-zeatin concentration to which AHK4-transferred E. coli is able to respond (AHK4)	Biosensor response (blue colony color) of receptor-transferred transformant to IPTG [1]	ability to perceive cytokinins compared to that of AHK4 (ZmHK1)	color development of transferred E. coli spot compared with AHK4-transferred E. coli spots (ZmHK1; FIG. 1, 1 μM t-zeatin)
C/C(=C\CNc1ncnc2nc[nH]c12)CO [t-zeatin, trans-zeatin]	expressed β-galactosidase	≤ 10 µM	approx. 50 nM			
AHK4: Arabidopsis thaliana cytokinin receptor (sensor protein)				did not present a blue color		
B1				discriminated the presence or absence of a specific substance	approximately 10 fold	more intensive color development
